≈ marks a conversion by molar mass, not a printed value.
Key:
physchem [1] = details: phosphate buffered saline
Description: Equilibrium solubility of the compound in phosphate buffered saline after 48 to 72 hrs

[2] = molecular target: Phosphatidylinositol 4,5-bisphosphate 3-kinase catalytic subunit alpha isoform (Homo sapiens, UniProt P42336)
Description: Inhibition of human N-terminal polyHis-tagged PI3K p110alpha expressed in baculovirus infected Hi5 cells using Phosphatidylinositol-4,5-bisphosphate as substrate after 20 mins by AlphaScreen assay

physchem [3] = details: 0.01N HCl
Description: Equilibrium solubility of the compound in 0.01N HCl after 48 to 72 hrs

physchem [4] = details: simulated intestinal fluid
Description: Equilibrium solubility of the compound in simulated intestinal fluid after 48 to 72 hrs

[5] = molecular target: T1, Phosphatidylinositol 4,5-bisphosphate 3-kinase catalytic subunit delta isoform (Homo sapiens, UniProt O00329)
T1 sequence (O00329 whole entry): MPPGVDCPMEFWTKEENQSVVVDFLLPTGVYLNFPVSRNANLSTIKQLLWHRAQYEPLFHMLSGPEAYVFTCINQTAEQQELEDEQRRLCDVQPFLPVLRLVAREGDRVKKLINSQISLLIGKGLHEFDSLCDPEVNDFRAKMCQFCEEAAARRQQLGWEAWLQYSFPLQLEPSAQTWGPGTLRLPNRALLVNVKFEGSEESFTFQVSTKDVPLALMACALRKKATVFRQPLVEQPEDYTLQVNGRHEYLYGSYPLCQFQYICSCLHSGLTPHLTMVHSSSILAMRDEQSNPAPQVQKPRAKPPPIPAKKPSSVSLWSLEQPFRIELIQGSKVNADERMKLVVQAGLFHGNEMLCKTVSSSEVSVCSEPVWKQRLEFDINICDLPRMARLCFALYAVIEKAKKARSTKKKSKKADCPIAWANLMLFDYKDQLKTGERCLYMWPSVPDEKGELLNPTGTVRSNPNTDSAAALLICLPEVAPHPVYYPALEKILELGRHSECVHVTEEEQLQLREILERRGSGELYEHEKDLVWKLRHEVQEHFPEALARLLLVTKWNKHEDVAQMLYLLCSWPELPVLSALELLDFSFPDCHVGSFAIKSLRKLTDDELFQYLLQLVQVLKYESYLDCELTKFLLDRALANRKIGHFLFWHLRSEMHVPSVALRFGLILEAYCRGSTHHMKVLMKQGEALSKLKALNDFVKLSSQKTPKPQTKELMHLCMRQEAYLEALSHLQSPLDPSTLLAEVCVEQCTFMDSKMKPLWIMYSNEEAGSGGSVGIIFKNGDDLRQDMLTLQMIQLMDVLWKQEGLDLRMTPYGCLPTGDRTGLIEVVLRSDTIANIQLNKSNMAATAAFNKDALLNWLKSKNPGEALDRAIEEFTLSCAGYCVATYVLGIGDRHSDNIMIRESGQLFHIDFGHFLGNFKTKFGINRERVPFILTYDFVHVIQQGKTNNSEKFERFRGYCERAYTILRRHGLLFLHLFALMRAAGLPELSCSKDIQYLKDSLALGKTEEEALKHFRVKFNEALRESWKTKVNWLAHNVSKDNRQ
Description: Inhibition of human N-terminal polyHis-tagged PI3K p110delta expressed in baculovirus infected Hi5 cells using Phosphatidylinositol-4,5-bisphosphate as substrate after 20 mins by AlphaScreen assay

[6] = Plasma protein binding in human; format: ADME, cell-free; details: read-out: PPB (converted)
[7] = Plasma protein binding in mouse; format: ADME, cell-free; details: read-out: PPB (converted)
human MDR1 = assay: Permeability across pig LLC-PK1 cells expressing human MDR1; format: ADME, cell-based, Sus scrofa; details: read-out: permeability
in vivo [8] = details: Sprague-Dawley, rat, plasma, po, 2 mg/kg
[9] = Plasma protein binding in dog; format: ADME, cell-free, Canis lupus familiaris; details: read-out: PPB (converted)
in vivo [10] = details: Sprague-Dawley, rat, iv, 1 mg/kg
Description: (§1) Mean residence time in Sprague-Dawley rat at 1 mg/kg, iv

[11] = Plasma protein binding in rat; format: ADME, cell-free; details: read-out: PPB (converted)
[12] = molecular target: Phosphatidylinositol 3-kinase catalytic subunit type 3 (Homo sapiens, UniProt Q8NEB9); assay: Inhibition of human VPS34 using phosphatidylinositol/phosphatidylserine as substrate after 30 mins by fluorescence-based immunoassay
Mus musculus [13] = assay: Inhibition of PI3K in human U87MG cells xenografted in po dosed CD1 nu/nu mouse assessed as plasma concentration required for inhibition of AKT ser473 phosphorylation after 6 hrs; format: functional, organism-based, U-87MG ATCC; details: CD1, U-87 MG
[14] = molecular target: Voltage-gated inwardly rectifying potassium channel KCNH2 (Homo sapiens, UniProt Q12809); assay: Inhibition of human ERG
in vitro [15] = details: human, liver microsomes
Description: Clearance in human liver microsomes at 1 uM after 30 mins in presence of NADPH

Mus musculus [16] = species: Mus musculus; details: CD1, U-87MG ATCC
Description: Inhibition of PI3K-mediated AKT Ser473 phosphorylation in human U87MG cells xenografted in po dosed CD1 nu/nu mouse after 6 hrs

[17] = molecular target: Phosphatidylinositol 4,5-bisphosphate 3-kinase catalytic subunit beta isoform (Homo sapiens, UniProt P42338)
Description: Inhibition of human N-terminal polyHis-tagged PI3K p110beta expressed in baculovirus infected Hi5 cells using Phosphatidylinositol-4,5-bisphosphate as substrate after 20 mins by AlphaScreen assay

in vivo [18] = details: Sprague-Dawley, rat, iv, 1 mg/kg; remark: listed apart in the source
Description: (§2) Clearance in Sprague-Dawley rat at 1 mg/kg, iv

in vitro [19] = details: rat, liver microsomes
Description: Clearance in rat liver microsomes at 1 uM after 30 mins in presence of NADPH

in vivo [20] = details: Sprague-Dawley, rat, po, 2 mg/kg
in vivo [21] = details: Sprague-Dawley, rat, iv, 1 mg/kg; remark: listed apart in the source
[22] = molecular target: Phosphatidylinositol 4,5-bisphosphate 3-kinase catalytic subunit gamma isoform (Homo sapiens, UniProt P48736); parameters: species or system BTI-TN-5B1-4
rodent MDR1 = assay: Permeability across pig LLC-PK1 cells expressing rodent MDR1; format: ADME, cell-based, Sus scrofa; details: read-out: permeability
[23] = molecular target: Serine/threonine-protein kinase mTOR (Homo sapiens, UniProt P42345)
Description: Inhibition of recombinant N-terminal GST-tagged mTOR using GFP-4EBP as substrate after 90 mins by TR-FRET assay

Rattus norvegicus [24] = species: Rattus norvegicus; details: in vivo, po, 2 mg/kg
Rattus norvegicus [25] = species: Rattus norvegicus; details: in vivo, po, 2 mg/kg; remark: listed apart in the source
Rattus norvegicus [26] = species: Rattus norvegicus; details: in vivo, iv, 1 mg/kg
Description: as §2

Rattus norvegicus [27] = species: Rattus norvegicus; details: in vivo, iv, 1 mg/kg; remark: listed apart in the source
Description: as §1

Rattus norvegicus [28] = species: Rattus norvegicus; details: in vivo, iv, 1 mg/kg; remark: listed apart in the source

Chain of Phosphatidylinositol 4,5-bisphosphate 3-kinase catalytic subunit gamma isoform (P48736 whole entry, canonical isoform): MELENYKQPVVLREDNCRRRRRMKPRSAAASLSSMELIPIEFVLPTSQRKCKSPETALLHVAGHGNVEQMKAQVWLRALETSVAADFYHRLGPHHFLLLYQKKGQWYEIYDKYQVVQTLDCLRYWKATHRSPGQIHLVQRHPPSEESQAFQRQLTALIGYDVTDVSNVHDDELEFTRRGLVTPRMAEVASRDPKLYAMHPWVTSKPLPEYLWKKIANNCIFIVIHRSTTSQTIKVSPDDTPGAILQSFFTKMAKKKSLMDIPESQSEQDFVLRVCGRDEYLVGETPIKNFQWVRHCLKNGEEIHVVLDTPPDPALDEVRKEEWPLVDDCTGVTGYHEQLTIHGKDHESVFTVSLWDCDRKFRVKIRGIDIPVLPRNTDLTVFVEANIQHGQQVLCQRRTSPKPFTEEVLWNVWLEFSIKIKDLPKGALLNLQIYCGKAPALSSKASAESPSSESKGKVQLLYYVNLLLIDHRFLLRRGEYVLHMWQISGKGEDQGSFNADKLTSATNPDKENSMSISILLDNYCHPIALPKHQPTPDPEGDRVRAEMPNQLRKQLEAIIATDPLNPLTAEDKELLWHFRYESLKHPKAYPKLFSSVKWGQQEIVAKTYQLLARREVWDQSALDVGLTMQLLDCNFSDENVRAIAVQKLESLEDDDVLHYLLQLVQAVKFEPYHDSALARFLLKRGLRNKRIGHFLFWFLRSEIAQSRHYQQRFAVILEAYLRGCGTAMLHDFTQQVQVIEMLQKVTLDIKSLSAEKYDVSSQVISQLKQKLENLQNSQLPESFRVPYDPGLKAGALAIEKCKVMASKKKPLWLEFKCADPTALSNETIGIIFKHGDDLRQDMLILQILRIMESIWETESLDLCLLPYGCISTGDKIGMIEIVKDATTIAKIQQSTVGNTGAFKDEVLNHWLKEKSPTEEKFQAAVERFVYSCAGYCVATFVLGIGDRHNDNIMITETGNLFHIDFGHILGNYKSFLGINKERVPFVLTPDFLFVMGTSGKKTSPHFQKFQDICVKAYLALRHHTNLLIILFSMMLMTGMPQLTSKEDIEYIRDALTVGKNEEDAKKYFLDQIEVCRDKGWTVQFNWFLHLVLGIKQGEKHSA
Chain of Phosphatidylinositol 4,5-bisphosphate 3-kinase catalytic subunit beta isoform (P42338 whole entry, canonical isoform): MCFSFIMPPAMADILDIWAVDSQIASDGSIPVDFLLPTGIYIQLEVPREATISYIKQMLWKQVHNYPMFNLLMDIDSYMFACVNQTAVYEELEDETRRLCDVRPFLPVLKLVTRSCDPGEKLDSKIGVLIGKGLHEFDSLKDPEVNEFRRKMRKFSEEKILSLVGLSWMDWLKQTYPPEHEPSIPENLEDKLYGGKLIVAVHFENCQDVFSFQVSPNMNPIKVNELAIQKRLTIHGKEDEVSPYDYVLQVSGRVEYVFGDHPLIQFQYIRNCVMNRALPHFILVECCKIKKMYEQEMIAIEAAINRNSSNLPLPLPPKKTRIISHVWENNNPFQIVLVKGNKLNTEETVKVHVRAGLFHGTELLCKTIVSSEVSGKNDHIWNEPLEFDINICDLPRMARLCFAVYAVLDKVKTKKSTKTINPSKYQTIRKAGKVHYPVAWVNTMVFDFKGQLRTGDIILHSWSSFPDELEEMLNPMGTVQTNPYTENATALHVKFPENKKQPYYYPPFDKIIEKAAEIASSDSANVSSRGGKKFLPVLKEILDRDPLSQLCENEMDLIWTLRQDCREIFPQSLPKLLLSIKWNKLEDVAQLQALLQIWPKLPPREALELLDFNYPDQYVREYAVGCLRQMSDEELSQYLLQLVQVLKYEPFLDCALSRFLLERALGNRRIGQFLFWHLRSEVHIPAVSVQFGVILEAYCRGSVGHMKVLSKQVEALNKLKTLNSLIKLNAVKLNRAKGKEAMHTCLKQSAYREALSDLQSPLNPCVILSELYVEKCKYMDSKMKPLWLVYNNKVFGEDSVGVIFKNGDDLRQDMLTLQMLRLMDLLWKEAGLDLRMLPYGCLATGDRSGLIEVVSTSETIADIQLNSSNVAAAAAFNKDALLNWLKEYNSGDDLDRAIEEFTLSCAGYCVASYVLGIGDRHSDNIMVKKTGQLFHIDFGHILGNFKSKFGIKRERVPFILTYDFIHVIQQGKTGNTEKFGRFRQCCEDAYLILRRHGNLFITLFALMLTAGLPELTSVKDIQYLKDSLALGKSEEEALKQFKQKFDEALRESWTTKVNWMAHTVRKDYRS
Chain of Phosphatidylinositol 4,5-bisphosphate 3-kinase catalytic subunit alpha isoform (P42336 whole entry, canonical isoform): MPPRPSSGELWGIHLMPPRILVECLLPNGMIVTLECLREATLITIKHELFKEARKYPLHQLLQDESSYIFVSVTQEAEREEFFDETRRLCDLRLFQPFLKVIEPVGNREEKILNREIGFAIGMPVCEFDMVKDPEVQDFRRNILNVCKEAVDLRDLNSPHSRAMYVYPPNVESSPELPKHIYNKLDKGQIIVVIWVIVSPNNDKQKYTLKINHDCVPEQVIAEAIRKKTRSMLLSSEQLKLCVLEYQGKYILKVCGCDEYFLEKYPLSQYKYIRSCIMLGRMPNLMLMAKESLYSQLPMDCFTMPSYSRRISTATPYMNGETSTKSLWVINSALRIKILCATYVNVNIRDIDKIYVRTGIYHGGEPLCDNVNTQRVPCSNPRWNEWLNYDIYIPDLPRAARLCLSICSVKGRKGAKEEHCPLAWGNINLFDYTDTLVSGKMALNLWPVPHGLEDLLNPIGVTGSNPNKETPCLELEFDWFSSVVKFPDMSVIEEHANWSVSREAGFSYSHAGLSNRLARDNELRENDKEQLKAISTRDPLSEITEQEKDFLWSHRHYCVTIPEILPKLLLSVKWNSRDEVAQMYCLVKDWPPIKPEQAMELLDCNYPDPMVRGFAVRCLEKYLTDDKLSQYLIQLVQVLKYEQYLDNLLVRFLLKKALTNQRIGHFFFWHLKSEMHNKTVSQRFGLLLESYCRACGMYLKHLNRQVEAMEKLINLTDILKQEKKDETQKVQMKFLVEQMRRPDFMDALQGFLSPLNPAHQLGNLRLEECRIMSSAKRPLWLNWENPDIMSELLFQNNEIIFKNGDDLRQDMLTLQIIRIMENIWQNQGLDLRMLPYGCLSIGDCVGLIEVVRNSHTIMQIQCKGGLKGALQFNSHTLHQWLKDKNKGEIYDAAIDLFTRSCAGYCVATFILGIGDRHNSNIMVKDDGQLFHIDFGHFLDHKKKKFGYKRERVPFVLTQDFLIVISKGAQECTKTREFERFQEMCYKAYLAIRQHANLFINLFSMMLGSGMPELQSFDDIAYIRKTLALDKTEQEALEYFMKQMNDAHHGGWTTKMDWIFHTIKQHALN
Chain of Phosphatidylinositol 3-kinase catalytic subunit type 3 (Q8NEB9 whole entry): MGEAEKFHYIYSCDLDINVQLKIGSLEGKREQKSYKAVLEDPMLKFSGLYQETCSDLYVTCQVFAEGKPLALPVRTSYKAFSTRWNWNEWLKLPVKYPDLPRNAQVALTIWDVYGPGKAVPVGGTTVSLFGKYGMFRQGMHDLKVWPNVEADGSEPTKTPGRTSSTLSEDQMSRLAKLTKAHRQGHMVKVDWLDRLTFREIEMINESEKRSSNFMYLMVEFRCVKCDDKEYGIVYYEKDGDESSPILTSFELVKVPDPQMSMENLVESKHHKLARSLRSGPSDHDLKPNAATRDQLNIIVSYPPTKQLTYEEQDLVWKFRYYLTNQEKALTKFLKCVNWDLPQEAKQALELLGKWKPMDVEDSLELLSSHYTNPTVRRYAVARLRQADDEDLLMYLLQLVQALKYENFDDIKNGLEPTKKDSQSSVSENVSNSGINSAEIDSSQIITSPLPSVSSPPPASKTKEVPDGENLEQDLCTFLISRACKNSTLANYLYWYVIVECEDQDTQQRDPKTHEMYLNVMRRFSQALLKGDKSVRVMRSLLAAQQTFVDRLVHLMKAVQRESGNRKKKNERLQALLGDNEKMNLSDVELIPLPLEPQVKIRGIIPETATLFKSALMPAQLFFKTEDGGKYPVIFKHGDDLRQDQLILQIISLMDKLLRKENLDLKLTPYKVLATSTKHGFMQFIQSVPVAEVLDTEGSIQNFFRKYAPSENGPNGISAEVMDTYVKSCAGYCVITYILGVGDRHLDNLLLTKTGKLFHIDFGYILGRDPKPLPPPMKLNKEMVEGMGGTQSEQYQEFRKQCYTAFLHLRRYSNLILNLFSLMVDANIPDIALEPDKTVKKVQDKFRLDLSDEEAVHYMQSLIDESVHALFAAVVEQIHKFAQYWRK

Row | solubility thermodynamic (physchem [1]) | Ki [2] | solubility thermodynamic (physchem [3]) | solubility thermodynamic (physchem [4]) | Compound | other results
1 | 1000 µg/mL (≈ 2270 µM) | 0.0035 µM | 1000 µg/mL (≈ 2270 µM) | 1000 µg/mL (≈ 2270 µM) | Cc1nc(N)nc(-c2cc(Cl)cnc2Nc2cnc(Cl)c(NS(C)(=O)=O)c2)n1 | 
2 | 2000 µg/mL (≈ 4250 µM) | 0.0077 µM | 1000 µg/mL (≈ 2130 µM) | 11600 µg/mL (≈ 24700 µM) | Cc1nc(N)nc(-c2cc(Cl)cnc2Nc2cnc(Cl)c(NS(=O)(=O)N(C)C)c2)n1 | Ki [5]: 0.0004 µM; fraction unbound [6]: 0.002; fraction unbound [7]: 0.0287; Papp (human MDR1): 12.2 ×10⁻⁶ cm/s; AUC (in vivo [8]): 3360 ng·h/mL; fraction unbound [9]: 0.0035; MRT (in vivo [10]): 2.5 h; fraction unbound [11]: 0.002; IC50 [12]: 0.606 µM; EC50 (Mus musculus [13]): 0.091 µg/mL (≈ 0.193 µM); inhibition (INH) [14]: Not Active; microsomal CLint at 0.5 h, 1 µM (in vitro [15]): 47 µL/min/mg; inhibition (Mus musculus [16]): Dose-dependent effect; Ki [17]: 0.0006 µM; clearance (in vivo [18]): 6.5 mL/min/kg; microsomal CLint at 0.5 h, 1 µM (in vitro [19]): 27 µL/min/mg; bioavailability (in vivo [20]): 63%; Vd (in vivo [21]): 0.97 L/kg; Ki [22]: 0.001 µM; Papp (rodent MDR1): 12.2 ×10⁻⁶ cm/s
3 |  | 0.114 µM |  |  | COc1ncc(Nc2ncc(Cl)cc2-c2nc(C)nc(N)n2)cc1NS(C)(=O)=O | 
4 |  | 0.311 µM |  |  | Cc1nc(N)nc(-c2cc(Cl)cnc2Nc2cnc(Cl)c(N(C)S(C)(=O)=O)c2)n1 | 
5 | 1 µg/mL (≈ 2.29 µM) | 0.011 µM | 1 µg/mL (≈ 2.29 µM) | 1 µg/mL (≈ 2.29 µM) | COc1cnc(Nc2cnc(Cl)c(NS(C)(=O)=O)c2)c(-c2nc(C)nc(N)n2)c1 | AUC (Rattus norvegicus [24]): 419 ng·h/mL; MRT (in vivo [10]): 1.3 h; microsomal CLint at 0.5 h, 1 µM (in vitro [15]): < 14 µL/min/mg; F (Rattus norvegicus [25]): 1.8%; microsomal CLint at 0.5 h, 1 µM (in vitro [19]): < 14 µL/min/mg; Vd (in vivo [21]): 0.28 L/kg; CL (Rattus norvegicus [26]): 3.5 mL/min/kg
6 |  | 0.161 µM |  |  | Cc1nc(N)nc(-c2cc(Cl)cnc2Nc2cnc(C)c(NS(C)(=O)=O)c2)n1 | 
7 | 1000 µg/mL (≈ 1940 µM) | 0.029 µM | 3200 µg/mL (≈ 6220 µM) | 3200 µg/mL (≈ 6220 µM) | COCCN(C)S(=O)(=O)Nc1cc(Nc2ncc(Cl)cc2-c2nc(C)nc(N)n2)cnc1Cl | 

The remaining lines, values behind:

Row | Compound | solubility thermodynamic (physchem [1]) | Ki [2] | solubility thermodynamic (physchem [3]) | solubility thermodynamic (physchem [4]) | other results
8 | COc1cnc(Nc2cnc(Cl)c(NS(=O)(=O)N3CCOCC3)c2)c(-c2nc(C)nc(N)n2)c1 | 14 µg/mL (≈ 27.6 µM) | 0.013 µM | 5 µg/mL (≈ 9.84 µM) | 1 µg/mL (≈ 1.97 µM) | 
9 | Cc1nc(N)nc(-c2cc(Cl)cnc2Nc2cnc(Cl)c(NS(=O)(=O)N3CCOCC3)c2)n1 | 1000 µg/mL (≈ 1950 µM) | 0.0086 µM | 1000 µg/mL (≈ 1950 µM) | 11100 µg/mL (≈ 21700 µM) | 
10 | Cc1nc(N)nc(-c2cccnc2Nc2cnc(Cl)c(N)c2)n1 |  | 0.36 µM |  |  | 
11 | Cc1nc(N)nc(-c2cccnc2Nc2cnc(Cl)c(NS(=O)(=O)C3CC3)c2)n1 | 1000 µg/mL (≈ 2310 µM) | 0.011 µM | 1000 µg/mL (≈ 2310 µM) | 3600 µg/mL (≈ 8320 µM) | 
12 | Cc1nc(N)nc(-c2cccnc2Nc2cnc(Cl)c(NS(=O)(=O)N(C)C(C)C)c2)n1 |  | 0.043 µM |  |  | 
13 | Cc1nc(N)nc(-c2cccnc2Nc2cnc(Cl)c(NS(=O)(=O)c3ccc(F)cc3)c2)n1 | 2900 µg/mL (≈ 5960 µM) | 0.016 µM | 5800 µg/mL (≈ 11900 µM) | 46200 µg/mL (≈ 94900 µM) | 
14 | COCCOc1cnc(Nc2cnc(Cl)c(NS(C)(=O)=O)c2)c(-c2nc(C)nc(N)n2)c1 | 34 µg/mL (≈ 70.7 µM) | 0.018 µM | 33 µg/mL (≈ 68.6 µM) | 43 µg/mL (≈ 89.4 µM) | Ki [5]: 0.0061 µM; AUC (in vivo [8]): 1210 ng·h/mL; MRT (in vivo [10]): 1.1 h; IC50 [23]: 0.032 µM; microsomal CLint at 0.5 h, 1 µM (in vitro [15]): < 14 µL/min/mg; Ki [17]: 0.016 µM; clearance (in vivo [18]): 7.67 mL/min/kg; microsomal CLint at 0.5 h, 1 µM (in vitro [19]): < 14 µL/min/mg; bioavailability (in vivo [20]): 28%; Vd (in vivo [21]): 0.52 L/kg; Ki [22]: 0.014 µM
15 | Cc1nc(N)nc(-c2cc(CN3CCOCC3)cnc2Nc2cnc(Cl)c(NS(=O)(=O)N(C)C)c2)n1 | 11 µg/mL (≈ 20.6 µM) | 0.0019 µM | 200 µg/mL (≈ 374 µM) | 16 µg/mL (≈ 29.9 µM) | 
16 | COc1cnc(Nc2cnc(Cl)c(NS(=O)(=O)N(C)C)c2)c(-c2nc(C)nc(N)n2)c1 | 4 µg/mL (≈ 8.59 µM) | 0.0093 µM | 3 µg/mL (≈ 6.44 µM) | 1 µg/mL (≈ 2.15 µM) | Ki [5]: 0.0011 µM; AUC (in vivo [8]): 859 ng·h/mL; MRT (in vivo [10]): 2 h; IC50 [23]: 0.074 µM; microsomal CLint at 0.5 h, 1 µM (in vitro [15]): 26 µL/min/mg; Ki [17]: 0.0047 µM; clearance (in vivo [18]): 8.67 mL/min/kg; microsomal CLint at 0.5 h, 1 µM (in vitro [19]): 20 µL/min/mg; bioavailability (in vivo [20]): 22%; Vd (in vivo [21]): 1.01 L/kg; Ki [22]: 0.0022 µM
17 | Cc1nc(N)nc(-c2cccnc2Nc2cnc(Cl)c(NS(=O)(=O)N3CCOCC3)c2)n1 |  | 0.016 µM |  |  | 
18 | Cc1nc(N)nc(-c2cccnc2Nc2cnc(Cl)c(NS(C)(=O)=O)c2)n1 | 2900 µg/mL (≈ 7130 µM) | 0.02 µM | 5800 µg/mL (≈ 14300 µM) | 46200 µg/mL (≈ 114000 µM) | Ki [5]: 0.0012 µM; AUC (Rattus norvegicus [24]): 4238 ng·h/mL; MRT (Rattus norvegicus [27]): 4.5 h; IC50 [12]: 1.29 µM; Vdss (Rattus norvegicus [28]): 0.4 L/kg; IC50 [23]: 0.198 µM; microsomal CLint at 0.5 h, 1 µM (in vitro [15]): < 14 µL/min/mg; Ki [17]: 0.0044 µM; F (Rattus norvegicus [25]): 33%; microsomal CLint at 0.5 h, 1 µM (in vitro [19]): < 14 µL/min/mg; CL (Rattus norvegicus [26]): 6.5 mL/min/kg; Ki [22]: 0.0024 µM
19 | Cc1nc(N)nc(-c2cc(CN3CCOCC3)cnc2Nc2cnc(Cl)c(NS(C)(=O)=O)c2)n1 | 11 µg/mL (≈ 21.7 µM) | 0.0097 µM | 200 µg/mL (≈ 395 µM) | 8 µg/mL (≈ 15.8 µM) | 
20 | Cc1nc(N)nc(-c2cc(Cl)cnc2Nc2cnc(Cl)c(NS(=O)(=O)c3cccnc3)c2)n1 |  | 0.013 µM |  |  | 
21 | Cc1nc(N)nc(-c2cccnc2Nc2cnc(Cl)c(NS(=O)(=O)N(C)C)c2)n1 | 3600 µg/mL (≈ 8260 µM) | 0.011 µM | 4700 µg/mL (≈ 10800 µM) | 1000 µg/mL (≈ 2290 µM) | 

Reference: ChEMBL document CHEMBL2203208, “Synthesis and structure-activity relationships of dual PI3K/mTOR inhibitors based on a 4-amino-6-methyl-1,3,5-triazine sulfonamide scaffold” (Bioorg Med Chem Lett, 2012)
